ChEMBL document CHEMBL1141393 (J Med Chem, 2007)
Values after ≈ are worked out from the molar mass of the structure shown.

Experiments:
Plasmodium falciparum [1] = experiment: Antiplasmodial activity against chloroquine-resistant Plasmodium falciparum K1; format: functional, organism-based
Plasmodium falciparum [2] = experiment: Antiplasmodial activity against chloroquine-sensitive Plasmodium falciparum 3D7; format: functional, organism-based
Plasmodium falciparum [3] = experiment: Antiplasmodial activity against chloroquine-sensitive Plasmodium falciparum D10; format: functional, organism-based
Plasmodium falciparum [4] = experiment: Antiplasmodial activity against chloroquine-resistant Plasmodium falciparum W2; format: functional, organism-based
[5] = Cytotoxicity against human lymphocytes; format: cell-based; settings: Lymphocyte
Daudi = experiment: Cytotoxicity against human Daudi cell line; format: cell-based
Candida parapsilosis = experiment: Antifungal activity against Candida parapsilosis ATCC 22019; format: functional; settings: Lodderomyces parapsilosis
Cryptococcus neoformans = experiment: Antifungal activity against Cryptococcus neoformans; format: functional
Aspergillus fumigatus [6] = experiment: Antifungal activity against Aspergillus fumigatus; format: functional
Aspergillus flavus = experiment: Antifungal activity against Aspergillus flavus ATCC 204304; format: functional
Pichia kudriavzevii = experiment: Antifungal activity against Candida krusei ATCC 6258; format: functional
Candida albicans = experiment: Antifungal activity against Candida albicans; format: functional
KB = experiment: Cytotoxicity against human KB cell line; format: cell-based
Aspergillus fumigatus [7] = experiment: Antifungal activity against itraconazole resistant Aspergillus fumigatus; format: functional

Structure (SMILES)	IC50 (Plasmodium falciparum [1])	IC50 (Plasmodium falciparum [2])	IC50 (Plasmodium falciparum [3])	IC50 (Plasmodium falciparum [4])	IC50 [5]	IC50 (Daudi)	MIC (Candida parapsilosis)	MIC (Cryptococcus neoformans)	MIC (Aspergillus fumigatus [6])	MIC (Aspergillus flavus)	MIC (Pichia kudriavzevii)	MIC (Candida albicans)	IC50 (KB)	MIC (Aspergillus fumigatus [7])
N#CC(c1ccccc1)(c1ccc(Cl)cc1)c1ccc(CN2CCCC2)cc1 (racemic)	2640 nM	5070 nM												
OC(c1ccccc1)(c1ccc(Cl)cc1)c1ccc(CN2CCCC2)cc1 (racemic)	2170 nM	> 10000 nM	8.3 µM											
Clc1ccc(C(c2ccccc2)(c2ccc(CN3CCCC3)cc2)N2CCCC2)cc1 (racemic)	1990 nM	940 nM	4.81 µM	2570 nM										
Clc1ccccc1C(CNCN1CCCC1)n1ccnc1 (racemic)	920 nM	2610 nM	9.43 µM	3050 nM										
Clc1ccc(C(c2ccccc2)(c2ccc(CN3CCCC3)cc2)n2ccnc2)cc1 (racemic)					70 µM	58 µM	32 µg/mL (≈ 74.8 µM)	> 32 µg/mL	> 32 µg/mL	> 32 µg/mL	16 µg/mL (≈ 37.4 µM)	32 µg/mL (≈ 74.8 µM)	70 µM	
Clc1ccc(C(Cn2ccnc2)(c2ccccc2)c2ccc(CN3CCCC3)cc2)cc1 (racemic)	520 nM	750 nM												
Clc1ccccc1C(c1ccc(CN2CCCC2)cc1)n1ccnc1 (racemic)	110 nM	11 nM	2.18 µM	1700 nM			> 32 µg/mL	> 32 µg/mL	> 32 µg/mL	> 32 µg/mL	> 32 µg/mL	> 32 µg/mL		
CCN(CC)Cc1ccc(C(c2ccccc2Cl)n2cncn2)cc1 (racemic)	790 nM	> 10000 nM	> 10 µM	> 10000 nM										
Clc1ccc(C(c2ccc(CN3CCCC3)cc2)n2ccnc2)cc1 (racemic)	170 nM	310 nM	1.66 µM	1130 nM			> 32 µg/mL	> 32 µg/mL	> 32 µg/mL	> 32 µg/mL	> 32 µg/mL	> 32 µg/mL		
COc1ccc(C(c2ccccc2)(c2ccc(CN3CCCC3)cc2)n2ccnc2)cc1 (racemic)	5930 nM	8130 nM	2.04 µM	1840 nM										
Clc1cccc(C(c2ccc(CN3CCCC3)cc2)n2ccnc2)c1 (racemic)	200 nM	110 nM	1.42 µM	1030 nM			> 32 µg/mL	> 32 µg/mL	> 32 µg/mL	> 32 µg/mL	> 32 µg/mL	> 32 µg/mL		
CCN(CC)CCCNCC(c1ccccc1Cl)n1ccnc1 (racemic)	3080 nM	1900 nM	6.41 µM	4460 nM										
Clc1ccc(C(c2ccccc2)(c2ccc(CN3CCCC3)cc2)n2cncn2)cc1 (racemic)	2150 nM	8910 nM	6.92 µM	3830 nM										
Clc1cccc(C(c2ccccc2)(c2ccc(CN3CCCC3)cc2)n2ccnc2)c1 (racemic)	23 nM	47 nM	0.23 µM	100 nM										
Clc1ccccc1C(c1ccccc1)(c1ccccc1)n1ccnc1 [CLOTRIMAZOLE]							2 µg/mL (≈ 5.8 µM)	2 µg/mL (≈ 5.8 µM)	4 µg/mL (≈ 11.6 µM)	4 µg/mL (≈ 11.6 µM)	2 µg/mL (≈ 5.8 µM)	0.03 µg/mL (≈ 0.087 µM)		4 µg/mL (≈ 11.6 µM)
